In patent US20090298708A1, “2'-DEOXY-2'-FLUORO-BETA-D-ARABINONUCLEOSIDE 5'-TRIPHOSPHATES AND THEIR USE IN ENZYMATIC NUCLEIC ACID SYNTHESIS” (priority 2006, published 2009):

Legend:
[1] = test system: Phusion DNA polymerase (Ph); assay: Dropout assay, fidelity of incorporation by Ph; assay type: biochemical; conditions: 30 min reaction time, 55° C., templates PF21, PF41
Excerpt: FIG. 13 illustrates the fidelity of 2′F-araNTP incorporation on pyrimidine rich DNA template PF21 by Ph DNA polymerase. […] Template PF41 and primer PF20 are shown; PF39 is a 27-nt DNA control.
FIG. 14 illustrates the fidelity of 2′F-araNTP incorporation on purine rich DNA template PF41 by Ph DNA polymerase. The base sequence of the primer, DNA template and resulting terminated products in different dropout conditions (condition 1-5) is shown. […] Lane 1: dNTPs; 2: drop out dCTP (i.e. dATP, dGTP and dTTP, shorten as AGT, same coding for lanes 3-5), lane 6: 2′F-araNTPs; 7: drop out 2′F-araCTP (i.e. 2′F-araATP, 2′F-araGTP, 2′F-araTTP, shorten as AGT; same coding for lanes 8-10). The template PF41 and the primer PF20 are shown; PF39 is a 27mer DNA control.
For example, the 2′F-araNTP of interest is removed from the pool, and the ensuing synthesis on DNA template (e.g. PF21, PF23, PF41, PF43) assessed in comparison with a control reaction containing all four 2′F-araNTPs. For comparison, dropout experiments containing dNTPs are run in parallel. […] Apparent fidelity was calculated according to the equation:
(§1) 1−[(% full-length−2′F-araNTP)/(% full-length+2′F-araNTP)]
In one of these assays, 2′F-araATP was removed from the pool, and the ensuing synthesis assessed in comparison with a control reaction containing all four 2′F-araNTPs. For comparison, dropout experiments containing dNTPs were run in parallel (FIGS. 11-14).
Phusion DNA polymerase (Ph) was evaluated for fidelity of 2′F-araNTP incorporation using the same dropout assay. All four dropout experiments were conducted with the same DNA template PF21 (FIG. 13), or PF41 (FIG. 14).

DV DNA polymerase = target: T1, DV DNA polymerase (Pyrococcus sp., UniProt Q51334, D141A/DEL493-1029/E143A); assay: Dropout assay, fidelity of incorporation by DV; assay type: biochemical, Pyrococcus species GB-D; conditions: 30 min reaction time, 25 μM triphosphates, 55° C., template A: PF41, G: PF43, T: PF21, C: PF23
T1 construct: purchased New England Biolabs; host or cells: E. coli
Protocol: (§2) FIG. 11A illustrates the fidelity of 2′F-araATP incorporation on a DNA template PF41 by DV and 9N DNA polymerases. Reaction conditions: 0.8 unit DV and 9N, 25 μM triphosphates at 55° C. in 30 μL reaction volume; incubation time: 30 min. Group 1 & 5: dNTPs; 2 & 6: dropout of dATP; 3 & 7: 2′F-araNTPs, 4 & 8: dropout of 2′F-araATP; 27mer control DNA is PF39.
(§3) FIG. 11B illustrates the fidelity of 2′F-araGTP incorporation on DNA template PF43 by DV and 9N DNA polymerases. Reaction conditions: primer/template (1:1 molar ratio): 100 nM; 0.4 μL (0.8 unit) DV, 9N, 25 μM triphosphate concentration at 55° C. in 30 μL reaction volume. Reaction time for dNTPs (group 1, 5) was 30 min and others were shown above. Group 1 & 5: dNTPs; 2 & 6: drop out dGTP (i.e. dTTP, dCTP and dATP), 3 & 7: 2TF-araNTPs, 4 & 8: drop out 2′F-araGTP; lane P is the template PF41 as the full-length product control; PF39 is a 27-nt DNA control. All samples were analyzed by 12% denaturing PAGE.
(§4) FIG. 12A illustrates the fidelity of 2′F-araTTP incorporation by DV and 9N DNA polymerases on a DNA template PF21. Reaction conditions: 100 nM primer/template (1:1 molar ratio); 0.4 μL (0.8 unit) DV or 9N, 25 μM triphosphate concentration at 55° C. in 30 μL reaction volume. Reaction time for dNTPs (group 1, 5) was 30 min and others were shown above. Groups 1 & 5: dNTPs; 2 & 6: drop out dTTP; 3 & 7: 2′F-araNTPs; 4 & 8: drop out 2′F-araTTPs. in B: group 1 & 5: dNTPs; 2 & 6: drop out dCTP; 3 & 7: 2′F-araNTPs; 4 & 8: drop out 2′F-araCTPs; PF39 is a 27-nt DNA control. All samples were analyzed by 12% denaturing PAGE.
as §4, with “12B” for “12A”, “fidelity study” for “fidelity”, “2′F-araCTP” for “2′F-araTTP”, “PF23.” for “PF21.”, “(groups” for “(group”, “Groups” for “Groups 1 & 5: dNTPs; 2 & 6: drop out dTTP; 3 & 7: 2′F-araNTPs; 4 & 8: drop out 2′F-araTTPs. in B: group”
(§5) “Dropout assays” (Ichida et al. (2005) J. Am. Chem. Soc. 127:2802-2803) were conducted to assess the fidelity of 2′F-araNTP incorporation (each of 2′F-araATP, 2′F-araCTP, 2′F-araGTP and 2′F-araTTP) by various DNA polymerases (FIGS. 11-14). For example, the 2′F-araNTP of interest is removed from the pool, and the ensuing synthesis on DNA template (e.g. PF21, PF23, PF41, PF43) assessed in comparison with a control reaction containing all four 2′F-araNTPs. For comparison, dropout experiments containing dNTPs are run in parallel. Full-length DNA and FANA products are obtained when all four dNTPs (group 1 and 5) and 2′F-araNTPs (groups 3 and 7) were available, however, some pausing may occur during synthesis of the arabinose modified oligomers. Apparent fidelity was calculated according to the equation:
as §1
(§6) at 30 min reaction time (sample equation for dNTP values). >99% means that the full-length product was not detectable in our dropout assays.
(§7) “Dropout assays” (Ichida et al. (2005) J. Am. Chem. Soc. 127:2802-2803) were conducted to assess apparent fidelity of 2′F-araNTP incorporation by DV and 9N. In one of these assays, 2′F-araATP was removed from the pool, and the ensuing synthesis assessed in comparison with a control reaction containing all four 2′F-araNTPs. For comparison, dropout experiments containing dNTPs were run in parallel (FIGS. 11-14). Full-length DNA and FANA products were obtained when all four dNTPs (group 1 and 5) and 2′F-araNTPs (groups 3 and 7) were available, although some pausing was evident during synthesis of the arabinose modified oligomers.

9N DNA polymerase = target: T2, 9N DNA polymerase (Thermococcus sp., UniProt Q56366, E143D); assay: Dropout assay, fidelity of incorporation by 9N; assay type: biochemical, Thermococcus species (strain 9° N-7); conditions: 30 min reaction time, 25 μM triphosphates, 55° C., template A: PF41, G: PF43, T: PF21, C: PF23
T2 construct: purchased New England Biolabs; host or cells: E. coli
Protocol: as §2, §3, §4
as §4, with “12B” for “12A”, “fidelity study” for “fidelity”, “2′F-araCTP” for “2′F-araTTP”, “PF23.” for “PF21.”, “(groups” for “(group”, “Groups” for “Groups 1 & 5: dNTPs; 2 & 6: drop out dTTP; 3 & 7: 2′F-araNTPs; 4 & 8: drop out 2′F-araTTPs. in B: group”
as §5, §1, §6, §7

[2] = target: Phusion High-Fidelity DNA polymerase (Ph) (UniProt P61875); conditions: apparent fidelity, all 2'F-araNTP and dNTP dropouts; 55 C
MMLV-RT = target: T3, MMLV-RT (Moloney murine leukemia virus, UniProt P03355); assay: Primer extension assay with MMLV-RT; assay type: biochemical; conditions: MMLV-RT; 37° C.; DNA template PF22 (T/U triphosphates) or PF24 (C triphosphates); three contiguous units
T3 construct: Reverse transcriptases (RT): • MMLV-RT (MMLV or MM; source: Fermentas); purchased Fermentas
Excerpt: (§8) Primer extension assays were used to assess the incorporation of 2′F-araNTP on the various DNA templates (Table 1). The DNA primer (PF20) was first radioactively labeled at the 5′-hydroxyl terminus with a radioactive phosphorus probe and the enzyme T4 polynucleotide kinase (T4 PNK) (see Example 1 for General Methods). To assess the incorporation of 2′F-araNTPs, the primer and template were annealed, and the nucleoside 5′-triphosphates added in the presence of enzyme under the conditions specified in Table 2. Time points were obtained by analyzing small aliquots from the reaction mixture through polyacryamide gel electrophoresis (PAGE) and autoradiography.
(§9) Primer extension assays were used to assess the incorporation efficiency of contiguous 2′F-ara(T/C)TPs compared to 2′F-r(U/C)TP on a DNA template (e.g. PF22 or PF24). To this end, a DNA template (e.g. PF22: FIGS. 15, 16, 17A, 18, 21A; PF24: FIGS. 17B, 19, 20, 21B), primer and the appropriate NTPs (e.g. combination of dATP/dCTP/dGTP/ and NTP, where N=dT, 2′F-araT, 2′F-rU, or rU (FIGS. 15, 16, 17A, 18, 21A); or combination of dATP/dGTP/dTTP/ and NTP, where N=dC, 2′F-araC, 2′F-rC, or rC (FIGS. 17B, 19, 20, 21B)), were incubated in the presence one of MMLV-RT, 9N, HIV or DV polymerase. The protocols and conditions are described in Example 2 and Table 2.
(§10) Unless otherwise noticed in the Examples described below, the conditions used in the primer extension assays, such as dNTP concentration, reaction temperatures, concentration of Mg^2+, and reaction buffers (provided by the manufacturers, except for the HIV buffer which was prepared in-house) are shown in Table 2.
(§11) Primer extension assays were used to assess the incorporation of 2′F-araTTP on the DNA template (PF22). The DNA primer (PF20) was first radioactively labeled at the 5′-hydroxyl terminus with a radioactive phosphorus probe and the enzyme T4 polynucleotide kinase (T4 PNK) according to the manufacturer's specifications (MBI Fermentas Life Sciences, Burlington, ON). Incorporation of the ^32P label was accomplished in reaction mixtures consisting of DNA substrate (200 pmol), 2 μl loxreaction buffer (Buffer A for forward reaction: 500 mM Tris-HCl, pH 7.6 at 25° C., 100 mM MgCl2, 50 mM DTT, 1 mM spermidine and 1 mM EDTA), 1 μl T4 PNK enzyme solution (10 U/1 μl in a solution of 20 mM Tris-HCl, pH 7.5, 25 mM KCl, 0.1 mM EDTA, 2 mM DTT and 50% glycerol), 6 μl [γ-^32P]-ATP solution (6000 Ci/mmol, 10 mCi/ml; Amersham Biosciences, Inc.) and autoclaved sterile water to a final volume of 20 μl. The reaction mixture was incubated for about 45-60 min at 37° C., followed by a second incubation for 10 min at 95° C. to heat denature and deactivate the kinase enzyme. The solution was purified according to a standard protocol and the isolated yield of 5′-^32P-DNA following gel extraction averages 50%. The pure labeled samples were kept at −20° C. for future use.
(§12) Usually 2 or 3 folds of cold (unlabeled) DNA primer were combined with the radioactive primer. Then primer to template was mixed together with the final concentration at 85 nM for the primer and 255 nM for the template (i.e. the primer:template=1:3 molar ratio). The primer and template were heated at 95° C. for 5 min and annealed at 4° C. for at least two hours before use. In an Eppendorf tube, the following reagents, 5× or 10× buffer, nucleoside 5′-triphosphates (DATP, dGTP, dCTP, 2′F-araTTP at the same concentrations; see legend of FIG. 2), water, the primer and template mixture, were added together according to pre-calculated reaction volume (20 μL) and concentrations (see reaction conditions in Table 2). Mineral oil (20 μL) was usually used to prevent evaporation. The reaction mixture was incubated at either 37° C. or 55° C. and one of the various enzymes tested was added to initiate the primer extension reactions. […]

HIV-1 RT (recombinant) = target: T4, HIV-1 RT (recombinant) (Human immunodeficiency virus type 1 group M subtype B, UniProt P04585); assay: Primer extension assay with HIV-1 RT; assay type: biochemical; conditions: 37° C., DNA template PF22 (T/U triphosphates) or PF24 (C triphosphates), three contiguous units
T4 construct: Reverse transcriptases (RT): • MMLV-RT (MMLV or MM; source: Fermentas); • HIV-1 RT (recombinant); purchased Worthington Biochemical Corp
Excerpt: as §8, §9, §10, §11, §12

DNA polymerases = assay: Primer extension assays, statement for all enzymes studied; assay type: biochemical; conditions: DNA template PF24; 9N, HIV, MMLV, DV

| Compound | % Apparent Fidelity, dNTP [1] | % Apparent Fidelity, dNTP (DV DNA polymerase) | % Apparent Fidelity, dNTP (9N DNA polymerase) | activity [2] | Order of efficiency of incorporation (MMLV-RT) | Order of efficiency of incorporation (HIV-1 RT (recombinant)) | also measured |
| --- | --- | --- | --- | --- | --- | --- | --- |
| Nc1nc2c(ncn2[C@H]2C[C@H](O)[C@@H](COP(=O)(O)OP(=O)(O)OP(=O)(O)O)O2)c(=O)[nH]1 [dGTP] | >99% | 62% | 84% | – | – | – | – |
| TAATACGACTCACTATA / TTTGCCACTCTTCTCCCTATAGTGAGTCGTATTA [PF20/PF21 primer-template] | – | – | – | > 99% | – | – | – |
| Nc1ccn([C@@H]2O[C@H](COP(=O)(O)OP(=O)(O)OP(=O)(O)O)[C@@H](O)[C@H]2O)c(=O)n1 [rCTP, reference compound] | – | – | – | – | dCTP~2′F-rCTP ≧ 2′F-araCTP > CTP | dCTP~2′F-rCTP ≧ 2′F-araCTP > CTP | order of incorporation efficiency (DNA polymerases): dCTP=2′F-rCTP>2′F-araCTP >>rCTP |
| TAATACGACTCACTATA / AGAGCCTGAGAAGAGAGTATAGTGAGTCGTATTA [PF20/PF41 primer-template] | – | – | – | > 99% | – | – | – |
| O=c1ccn([C@@H]2O[C@H](COP(=O)(O)OP(=O)(O)OP(=O)(O)O)[C@@H](O)[C@H]2O)c(=O)[nH]1 [rUTP, reference compound] | – | – | – | – | dTTP > 2′F-araTTP > 2′F-rUTP > UTP | dTTP > 2′F-araTTP > 2′F-rUTP > UTP | – |
| Nc1ncnc2c1ncn2[C@H]1C[C@H](O)[C@@H](COP(=O)(O)OP(=O)(O)OP(=O)(O)O)O1 [dATP] | >99% | 1% | 80% | – | – | – | – |
